From the supplement of paper PMC8741786
In brackets after ≈: the same amount, converted by molar mass.

What was measured:
[1] = test system: Neisseria oralis; test: minimum inhibitory concentration (ETEST); settings: population: general population, antibiotic use in previous 6 months: No
Description: (§1)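 Oropharyngeal Neisseria isolates from MSM and employees in Belgium were identified to species by MALDI-TOF MS. MICs of azithromycin, ceftriaxone and ciprofloxacin were determined by ETEST on GC agar after 24 h at 36.5 °C and 5-7% CO2, in mg/L. Values beyond the strip range are reported as >256 (azithromycin) or <0.016 (ceftriaxone); isolates that did not grow are NA.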

[2] = test system: Neisseria meningitidis; test: minimum inhibitory concentration (ETEST)
Description: as §1

CC[C@H]1OC(=O)[C@H](C)[C@@H](O[C@H]2C[C@@](C)(OC)[C@@H](O)[C@H](C)O2)[C@H](C)[C@@H](O[C@@H]2O[C@H](C)C[C@H](N(C)C)[C@H]2O)[C@](C)(O)C[C@@H](C)CN(C)[C@H](C)[C@@H](O)[C@]1(C)O [azithromycin]
[1]
Settings	minimum inhibitory concentration [µg/mL]
isolate id (sample isolate): Co000761_7	2 (≈ 2.67 µM)
isolate id (sample isolate): Co000763_1	1 (≈ 1.34 µM)
isolate id (sample isolate): Co000766_2	1.5 (≈ 2 µM)
isolate id (sample isolate): Co000770_1	2 (≈ 2.67 µM)
isolate id (sample isolate): Co000774_1	3 (≈ 4.01 µM)
isolate id (sample isolate): Co000776_1	4 (≈ 5.34 µM)
isolate id (sample isolate): Co000776_1.1	3 (≈ 4.01 µM)
isolate id (sample isolate): Co000779_2	4 (≈ 5.34 µM)
isolate id (sample isolate): Co000790_5	2 (≈ 2.67 µM)

[2]
Settings	minimum inhibitory concentration [µg/mL]
isolate id (sample isolate): 19040471_1, population: MSM, antibiotic use in previous 6 months: No	0.38 (≈ 0.507 µM)
isolate id (sample isolate): 19040855_1, population: MSM, antibiotic use in previous 6 months: No	0.25 (≈ 0.334 µM)
isolate id (sample isolate): 19040874_2, population: MSM, antibiotic use in previous 6 months: No	2 (≈ 2.67 µM)
isolate id (sample isolate): 19040900_2, population: MSM, antibiotic use in previous 6 months: No	0.75 (≈ 1 µM)
isolate id (sample isolate): 19042150_2, population: MSM, antibiotic use in previous 6 months: Yes	1.5 (≈ 2 µM)
isolate id (sample isolate): 19042756_3, population: MSM, antibiotic use in previous 6 months: Yes	0.38 (≈ 0.507 µM)
isolate id (sample isolate): 19043201_1, population: MSM, antibiotic use in previous 6 months: No	0.75 (≈ 1 µM)
isolate id (sample isolate): 19043201_2, population: MSM, antibiotic use in previous 6 months: No	0.38 (≈ 0.507 µM)
isolate id (sample isolate): 19043274_1, population: MSM, antibiotic use in previous 6 months: Yes	0.5 (≈ 0.668 µM)
isolate id (sample isolate): 19043274_2, population: MSM, antibiotic use in previous 6 months: Yes	0.38 (≈ 0.507 µM)
isolate id (sample isolate): 19051853_1, population: MSM, antibiotic use in previous 6 months: No	0.38 (≈ 0.507 µM)
isolate id (sample isolate): 19052394_3, population: MSM, antibiotic use in previous 6 months: Yes	0.5 (≈ 0.668 µM)
isolate id (sample isolate): 19052434_1, population: MSM, antibiotic use in previous 6 months: Yes	0.75 (≈ 1 µM)
isolate id (sample isolate): 19060069_1, population: MSM, antibiotic use in previous 6 months: Yes	1 (≈ 1.34 µM)
isolate id (sample isolate): 19060069_2, population: MSM, antibiotic use in previous 6 months: Yes	1 (≈ 1.34 µM)
isolate id (sample isolate): 19060089_2, population: MSM, antibiotic use in previous 6 months: Yes	4 (≈ 5.34 µM)
isolate id (sample isolate): 19061666_1, population: MSM, antibiotic use in previous 6 months: Yes	3 (≈ 4.01 µM)
isolate id (sample isolate): 19062990_1, population: MSM, antibiotic use in previous 6 months: Yes	0.5 (≈ 0.668 µM)
isolate id (sample isolate): 19070019_2, population: MSM, antibiotic use in previous 6 months: No	0.38 (≈ 0.507 µM)
isolate id (sample isolate): 19070019_4, population: MSM, antibiotic use in previous 6 months: No	0.38 (≈ 0.507 µM)
isolate id (sample isolate): 19070047_1, population: MSM, antibiotic use in previous 6 months: No	0.5 (≈ 0.668 µM)
isolate id (sample isolate): 19082621_2, population: MSM, antibiotic use in previous 6 months: No	0.5 (≈ 0.668 µM)
isolate id (sample isolate): 19091461_1, population: MSM, antibiotic use in previous 6 months: No	6 (≈ 8.01 µM)
isolate id (sample isolate): 19091461_2, population: MSM, antibiotic use in previous 6 months: No	4 (≈ 5.34 µM)
isolate id (sample isolate): 19091973_1, population: MSM, antibiotic use in previous 6 months: No	0.5 (≈ 0.668 µM)
isolate id (sample isolate): 19092429_3, population: MSM, antibiotic use in previous 6 months: No	0.38 (≈ 0.507 µM)
isolate id (sample isolate): 19103457_1, population: MSM, antibiotic use in previous 6 months: No	0.38 (≈ 0.507 µM)
isolate id (sample isolate): 19103457_4, population: MSM, antibiotic use in previous 6 months: No	0.25 (≈ 0.334 µM)
isolate id (sample isolate): 19110394_1, population: MSM, antibiotic use in previous 6 months: No	0.5 (≈ 0.668 µM)
isolate id (sample isolate): 19113049_3, population: MSM, antibiotic use in previous 6 months: No	0.19 (≈ 0.254 µM)
isolate id (sample isolate): 19113049_6, population: MSM, antibiotic use in previous 6 months: No	0.25 (≈ 0.334 µM)
isolate id (sample isolate): Co000765_1, population: general population, antibiotic use in previous 6 months: No	0.5 (≈ 0.668 µM)
isolate id (sample isolate): Co000790_1, population: general population, antibiotic use in previous 6 months: No	2 (≈ 2.67 µM)
isolate id (sample isolate): Co000790_3, population: general population, antibiotic use in previous 6 months: No	1 (≈ 1.34 µM)
